In general, EC50 refers to the concentration that produces a half-maximal response. Higher therefore signals a need for much substance. What is called IC50 is the concentration that gives 50% inhibition. A higher IC50 goes with weaker potency in that assay.

Each structure is given as a SMILES string.

The target in assay [1] is T1, SFRP-1 (Homo sapiens, UniProt Q8N474).
T1 sequence (Q8N474 32-314): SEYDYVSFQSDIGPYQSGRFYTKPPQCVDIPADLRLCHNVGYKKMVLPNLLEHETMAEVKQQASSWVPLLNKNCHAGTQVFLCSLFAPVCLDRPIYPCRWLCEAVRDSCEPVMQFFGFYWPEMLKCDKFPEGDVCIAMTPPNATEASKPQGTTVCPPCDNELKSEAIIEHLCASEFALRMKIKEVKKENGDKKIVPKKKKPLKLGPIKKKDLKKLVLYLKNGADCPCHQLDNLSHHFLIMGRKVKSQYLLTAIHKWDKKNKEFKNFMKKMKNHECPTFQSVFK
Kind of assay: Cell-based assay for in vitro measurement of SFRP-1/SARP2 antagonist activity (U2OS cells co-transfected with 16x TCF-tk-Luciferase reporter, Wnt and hSFRP-1).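 As to all read-outs here: U2OS cells co-transfected with a TCF-tk luciferase reporter, a Wnt vector, hSFRP-1 or empty vector and CMV-βgal, luciferase luminescence read in cell lysates alongside βgal activity.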 The conditions noted are these: for fold induction at 10 µM: U2OS, read-out: Fold Induction with SFRP-1, U2OS cells, single dose 10 μM, luciferase reporter, fold induction over SFRP-1 control. (Reporter assays use an easily measured gene product as a stand-in for the process of interest.)

Assay [2] has as its target T1, SFRP-1. Kind of assay: Fluorescence polarization binding assay (competitive displacement of a probe compound from SFRP-1).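 Also: test compound competes with a fluorescent probe held by SFRP-1, seen as a drop in probe anisotropy after incubation in darkness, with anisotropy as function of rising compound dose.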 The conditions noted are these: fluorescence anisotropy, 45 nM SFRP-1, 20 nM probe. For orientation: Fluorescence polarisation rises when a labelled molecule tumbles more slowly, as on binding a larger partner.

For `O=C(c1ccccc1)c1ccc(C(=O)N2CCC(NS(=O)(=O)c3cc(S(=O)(=O)c4ccccc4)ccc3C(F)(F)F)CC2)cc1` [Example 800, N-[1-(4-benzoylbenzoyl)piperidin-4-yl]-5-(phenylsulfonyl)-2-(trifluoromethyl)benzenesulfonamide], in assay [1], the EC50 amounted to 738 nM and the fold induction at 10 µM was 3.6. In assay [2], this compound yielded an IC50 of 400 nM.
For `O=C(c1ccccc1)c1cccc(C(=O)N2CCC(NS(=O)(=O)c3cc(S(=O)(=O)c4ccccc4)ccc3C(F)(F)F)CC2)c1` [Example 801, N-[1-(3-benzoylbenzoyl)piperidin-4-yl]-5-(phenylsulfonyl)-2-(trifluoromethyl)benzenesulfonamide], in that order: 1080 nM, 3.4 and 180 nM.
Consider `O=S(=O)(NCCc1cccnc1)c1cc(S(=O)(=O)c2ccc(O)cc2)ccc1C(F)(F)F` [Example 814, 5-[(4-hydroxyphenyl)sulfonyl]-N-(2-pyridin-3-ylethyl)-2-(trifluoromethyl)benzenesulfonamide], for which, in assay [1], the EC50 turned out to be 307 nM and the fold induction at 10 µM was determined as 4.5. In assay [2], this compound displayed an IC50 of 120 nM.
As to `CC(C)c1ccc(S(=O)(=O)c2ccc(F)cc2)cc1S(=O)(=O)NC1CCSCC1` [Example 815, 5-[(4-fluorophenyl)sulfonyl]-2-isopropyl-N-(tetrahydro-2H-thiopyran-4-yl)benzenesulfonamide], the fold induction at 10 µM in assay [1] was 2.2. The compound also returned an IC50 in assay [2] of 1800 nM.
For the compound `O=S(=O)(NCCn1ccnc1)c1cc(S(=O)(=O)c2ccc(F)cc2)ccc1C(F)(F)F` [Example 816, 5-[(4-fluorophenyl)sulfonyl]-N-[2-(1H-imidazol-1-yl)ethyl]-2-(trifluoromethyl)benzenesulfonamide], in assay [1], the response was half-maximal at 1510 nM (EC50) and the fold induction at 10 µM was determined as 3.8. For the same compound, in assay [2], the IC50 worked out at 270 nM.
For `O=S(=O)(NC1CCOCC1)c1cc(S(=O)(=O)c2ccc(F)cc2)ccc1C(F)(F)F` [Example 817, 5-[(4-fluorophenyl)sulfonyl]-N-(tetrahydro-2H-pyran-4-yl)-2-(trifluoromethyl)benzenesulfonamide], in that order: 1140 nM, 3.3 and 300 nM.
As for `CC(C)(C)OC(=O)N1CCC(NS(=O)(=O)c2cc(S(=O)(=O)c3ccc(F)cc3)ccc2C(F)(F)F)CC1` [Example 818, tert-butyl 4-({[5-[(4-fluorophenyl)sulfonyl]-2-(trifluoromethyl)phenyl]sulfonyl}amino)piperidine-1-carboxylate], in assay [1], the concentration for a half-maximal effect (EC50) was 1320 nM and the fold induction at 10 µM was 2.6. The compound also registered an IC50 in assay [2] of 300 nM.
Take `CN(CCNS(=O)(=O)c1cc(S(=O)(=O)c2ccccc2)ccc1C(F)(F)F)C(=O)c1ccccc1` [Example 819, N-Methyl-N-[2-({[5-(phenylsulfonyl)-2-(trifluoromethyl)phenyl]sulfonyl}amino)ethyl]benzamide]: in assay [1], the EC50 was found to be 1570 nM and the fold induction at 10 µM was found to be 3.3. For the same compound, the IC50 in assay [2] was 220 nM.
`COc1ccc(S(=O)(=O)c2ccc(C(F)(F)F)c(S(=O)(=O)NCCC#N)c2)cc1` [Example 820, N-(2-cyanoethyl)-5-[(4-methoxyphenyl)sulfonyl]-2-(trifluoromethyl)benzenesulfonamide]: in assay [1], the midpoint of the response, the EC50, lay at 797 nM and the fold induction at 10 µM was determined as 4.1. The IC50 in assay [2] worked out at 250 nM.
In the same order, the values of `N#CCCNS(=O)(=O)c1cc(S(=O)(=O)c2ccc(O)cc2)ccc1C(F)(F)F` [Example 821, N-(2-cyanoethyl)-5-[(4-hydroxyphenyl)sulfonyl]-2-(trifluoromethyl)benzenesulfonamide] are 626 nM, 5.1 and 300 nM.
In the same order, the values of `COc1ccc(C(=O)N(C)CCNS(=O)(=O)c2cc(S(=O)(=O)c3ccccc3)ccc2C(F)(F)F)cc1` [Example 822, 4-Methoxy-N-methyl-N-[2-({[5-(phenylsulfonyl)-2-(trifluoromethyl)phenyl]sulfonyl}amino)ethyl]benzamide] are 1840 nM, 3.4 and 200 nM.
For `O=S(=O)(NC1c2ccccc2CC1O)c1cc(S(=O)(=O)c2ccccc2)ccc1C(F)(F)F` (stereo not shown) [Example 823, N-(2-hydroxy-2,3-dihydro-1H-inden-1-yl)-5-(phenylsulfonyl)-2-(trifluoromethyl)benzenesulfonamide], in that order: 3000 nM, 2.6 and 800 nM.
In the case of `CN(CCNS(=O)(=O)c1cc(S(=O)(=O)c2ccccc2)ccc1C(F)(F)F)C(=O)Nc1ccccc1` [Example 826, N-{2-[(anilinocarbonyl)(methyl)amino]ethyl}-5-(phenylsulfonyl)-2-(trifluoromethyl)benzenesulfonamide], in assay [1], the EC50 worked out at 1920 nM and the fold induction at 10 µM turned out to be 3.5. The compound also showed a 50% inhibitory concentration (IC50) in assay [2] of 700 nM.
For `CN(CCNS(=O)(=O)c1cc(S(=O)(=O)c2ccccc2)ccc1C(F)(F)F)C(=O)Nc1cccnc1` [Example 827, N-(2-{methyl[(pyridin-3-ylamino)carbonyl]amino}ethyl)-5-(phenylsulfonyl)-2-(trifluoromethyl)benzenesulfonamide], in that order: 1710 nM, 3.5 and 250 nM.
For `COc1ccc(NC(=O)N(C)CCNS(=O)(=O)c2cc(S(=O)(=O)c3ccccc3)ccc2C(F)(F)F)c(OC)c1` [Example 828, N-{2-[{[(2,4-dimethoxyphenyl)amino]carbonyl}(methyl)amino]ethyl}-5-(phenylsulfonyl)-2-(trifluoromethyl)benzenesulfonamide], in assay [1], the EC50 amounted to 2360 nM and the fold induction at 10 µM was 2.8. In assay [2], this compound registered an IC50 of 300 nM.
`CN(CCNS(=O)(=O)c1cc(S(=O)(=O)c2ccccc2)ccc1C(F)(F)F)C(=O)NC(C)(C)C` [Example 829, N-{2-[[(tert-butylamino)carbonyl](methyl)amino]ethyl}-5-(phenylsulfonyl)-2-(trifluoromethyl)benzenesulfonamide]: in assay [1], the response was half-maximal at 1320 nM (EC50) and the fold induction at 10 µM amounted to 2.7. In assay [2], this compound showed an IC50 of 400 nM.
In the same order, the values of `COc1ccc(NC(=O)N(C)CCNS(=O)(=O)c2cc(S(=O)(=O)c3ccccc3)ccc2C(F)(F)F)cc1` [Example 830, N-{2-[{[(4-methoxyphenyl)amino]carbonyl}(methyl)amino]ethyl}-5-(phenylsulfonyl)-2-(trifluoromethyl)benzenesulfonamide] are 1870 nM, 3.3 and 600 nM.
In the case of `CCCCNC(=O)N(C)CCNS(=O)(=O)c1cc(S(=O)(=O)c2ccccc2)ccc1C(F)(F)F` [Example 831, N-(2-[[(butylamino)carbonyl](methyl)amino]ethyl}-5-(phenylsulfonyl)-2-(trifluoromethyl)benzenesulfonamide], in assay [1], the EC50 is 1460 nM and the fold induction at 10 µM is 3.7. In assay [2], this compound returned an IC50 of 260 nM.
In the same order, the values of `CN(CCNS(=O)(=O)c1cc(S(=O)(=O)c2ccccc2)ccc1C(F)(F)F)C(=O)Nc1ccc(F)cc1F` [Example 832, N-{2-[{[(2,4-difluorophenyl)amino]carbonyl}(methyl)amino]ethyl}-5-(phenylsulfonyl)-2-(trifluoromethyl)benzenesulfonamide] are 2190 nM, 3.4 and 250 nM.
Consider `CN(CCNS(=O)(=O)c1cc(S(=O)(=O)c2ccccc2)ccc1C(F)(F)F)C(=O)N1CCCC1` [Example 833, N-methyl-N-[2-({[5-(phenylsulfonyl)-2-(trifluoromethyl)phenyl]sulfonyl}amino)ethyl]pyrrolidine-1-carboxamide], for which, in assay [1], the EC50 was 1260 nM and the fold induction at 10 µM turned out to be 3.4. The compound further gave an IC50 in assay [2] of 400 nM.
For `CCN(CC)C(=O)N(C)CCNS(=O)(=O)c1cc(S(=O)(=O)c2ccccc2)ccc1C(F)(F)F` [Example 834, N-{2-[[(diethylamino)carbonyl](methyl)amino]ethyl}-5-(phenylsulfonyl)-2-(trifluoromethyl)benzenesulfonamide], in assay [1], the EC50 turned out to be 1490 nM and the fold induction at 10 µM was determined as 3. Also, in assay [2], the IC50 came to 400 nM.
For `CN(CCNS(=O)(=O)c1cc(S(=O)(=O)c2ccccc2)ccc1C(F)(F)F)C(=O)N1CCOCC1` [Example 835, N-methyl-N-[2-({[5-(phenylsulfonyl)-2-(trifluoromethyl)phenyl]sulfonyl}amino)ethyl]morpholine-4-carboxamide], the fold induction at 10 µM in assay [1] was 3.3. In assay [2], this compound returned an IC50 of 1000 nM.
Take `CN(CCNS(=O)(=O)c1cc(S(=O)(=O)c2ccccc2)ccc1C(F)(F)F)C(=O)N(C)c1ccccc1` [Example 836, N-[2-(methyl{[methyl(phenyl)amino]carbonyl}amino)ethyl]-5-(phenylsulfonyl)-2-(trifluoromethyl)benzenesulfonamide]: in assay [1], the EC50 amounted to 1990 nM and the fold induction at 10 µM amounted to 2.8. In addition, the 50% inhibitory concentration (IC50) in assay [2] is 210 nM.
In the same order, the values of `CN(CCNS(=O)(=O)c1cc(S(=O)(=O)c2ccccc2)ccc1C(F)(F)F)C(=O)c1ccco1` [Example 837, N-Methyl-N-[2-({[5-(phenylsulfonyl)-2-(trifluoromethyl)phenyl]sulfonyl}amino)ethyl]-2-furamide] are 644 nM, 3.4 and 180 nM.

Source of the values: US20060276464A1, “Diarylsulfone sulfonamides and use thereof” (Wyeth, priority 2005, published 2006).
